The source of these data is US20050272040A1, “Method for increasing synaptic growth or plasticity” (priority 2002, published 2005).

This experiment deals with individual hippocampal cells. The experiment is described as follows: Single-cell Arc expression (aRNA amplification, real-time RT-PCR) after patch-clamp. The format is cell-based, rat. Conditions: BDNF-treated cells, electrophysiologic responders (n=7) vs non-responders (n=9), p<0.05. The protocol: FIG. 1A presents Arc expression in individual BDNF-treated cells following electrophysiological recordings and aRNA amplification. Arc transcription was measured by real-time RT-PCR and then normalized to internal GAPDH levels. The data are then expressed as a ratio of the average Arc expression in the seven control cells (expression ratio). FIG. 1B presents a correlation of Arc expression ratios to individual cell's synaptic BDNF responses. Average synaptic charge 3 to 5 minutes post-BDNF exposure expressed as a fold increase over baseline (−2 to 0 minute) was plotted against Arc expression ratios shown in FIG. 1A. Each circle represents one BDNF-treated cell. The cell number next to the circle corresponds with the cell number in FIG. 1A. Dashed line depicts a correlation coefficient indicating significance (r=0.66., p<0.005). The data are categorized into two groups of BDNF-treated cells: a cluster of non-responders (shaded) and a spread of responders (clear).
The molecular genetics of differential synaptic responses to BDNF was examined by performing single-cell transcriptional analysis after whole-cell patch-clamp. […] FIG. 1A represents Arc expression in cells exposed to BDNF relative to the average Arc expression in cells not exposed to BDNF (control) as assessed by real-time RT-PCR (expression ratio). […]

Regarding “BDNF: neurotrophin, 50 ng/ml, Preprotech; induces synaptic plasticity in hippocampal neurons”, the “Increase in Arc expression, responders relative to non-responders” value was found to be 17 fold.
